What all share (assay type): functional
The subject of test [1] is Streptococcus pyogenes. The test is described as follows: Antibacterial activity against Streptococcus pyogenes after 24 hrs by broth dilution technique. In general terms: Dilution methods test growth across graded concentrations, often in twofold steps.
Test [2] relates to Talaromyces marneffei. The test is described as follows: Antifungal activity against Penicillium marneffei after 48 hrs by twofold broth dilution method.
Test [3] has as its system Trichophyton mentagrophytes. The test is described as follows: Antifungal activity against Trichophyton mentagrophytes after 3 to 4 days by agar diffusion method.
The test system of test [4] is Aspergillus niger. The test is described as follows: Antifungal activity against Aspergillus niger after 48 hrs by twofold broth dilution method.
In test [5] the test system is Staphylococcus aureus. As to the kind of experiment: Antibacterial activity against Staphylococcus aureus after 24 hrs by broth dilution technique.
Test [6] relates to Escherichia coli. As to the kind of experiment: Antibacterial activity against Escherichia coli after 24 hrs by disk diffusion method.
For test [7], the system named is Mus musculus. The test is described as follows: Analgesic activity in albino mouse assessed as response latency time to pain stimulus at 25 mg/kg, po after 1 hr by hot plate method. Also on record: unit not given here. In general terms: Hot-plate and tail-flick tests time the reaction to a heat stimulus.
In test [8] the test system is Aspergillus fumigatus. The test is described as follows: Antifungal activity against Aspergillus fumigatus after 48 hrs by twofold broth dilution method.
Test [9] has as its system Candida albicans. As to the kind of experiment: Antifungal activity against Candida albicans after 48 hrs by twofold broth dilution method.
Test [10] deals with Escherichia coli. As to the kind of experiment: Antibacterial activity against Escherichia coli after 24 hrs by broth dilution technique.
Test [11] relates to Mus musculus. As to the kind of experiment: Analgesic activity in albino mouse assessed as response latency time to pain stimulus at 25 mg/kg, po after 3 hrs by hot plate method. Set-up: unit not given here.
For test [12], the system named is Talaromyces marneffei. As to the kind of experiment: Antifungal activity against Penicillium marneffei after 3 to 4 days by agar diffusion method. (In general: Agar diffusion results depend on both activity and mobility in agar.)
For test [13], the system named is Aspergillus fumigatus. The test is described as follows: Antifungal activity against Aspergillus fumigatus after 3 to 4 days by agar diffusion method.
Test [14] concerns Klebsiella pneumoniae. The test is described as follows: Antibacterial activity against Klebsiella pneumoniae after 24 hrs by broth dilution technique.
In test [15] the test system is Pseudomonas aeruginosa. The test is described as follows: Antibacterial activity against Pseudomonas aeruginosa after 24 hrs by broth dilution technique.
For test [16], the system named is Pseudomonas aeruginosa. As to the kind of experiment: Antibacterial activity against Pseudomonas aeruginosa after 24 hrs by disk diffusion method.
Test [17] relates to Trichophyton mentagrophytes. As to the kind of experiment: Antifungal activity against Trichophyton mentagrophytes after 48 hrs by twofold broth dilution method.
Test [18] relates to Candida albicans. The test is described as follows: Antifungal activity against Candida albicans after 3 to 4 days by agar diffusion method.
For test [19], the system named is Streptococcus pyogenes. The test is described as follows: Antibacterial activity against Streptococcus pyogenes after 24 hrs by disk diffusion method.
Test [20] concerns Klebsiella pneumoniae. As to the kind of experiment: Antibacterial activity against Klebsiella pneumoniae after 24 hrs by disk diffusion method.
The subject of another test is Rattus norvegicus. The test is described as follows: Antiinflammatory activity in Wister albino rat assessed as inhibition of carrageenan-induced paw edema at 50 mg/kg, po administered 30 mins before carrageenan challenge measured after 3 hrs relative to control.
For test [21], the system named is Staphylococcus aureus. The test is described as follows: Antibacterial activity against Staphylococcus aureus after 24 hrs by disk diffusion method.
The test system of test [22] is Aspergillus niger. The test is described as follows: Antifungal activity against Aspergillus niger after 3 to 4 days by agar diffusion method.

Each structure is given as a SMILES string.

Usually inhibition in vivo stands for how much of the control response was suppressed.

As for `Fc1cc(-c2nc3scc(-c4ccc(Cl)cc4)n3n2)c(Cl)cc1Cl`, the MIC in the test on Streptococcus pyogenes [1], against Talaromyces marneffei [2], with Aspergillus niger [4], in the test on Staphylococcus aureus [5], against Aspergillus fumigatus [8] and against Candida albicans [9] was 6.25 microg/cm3 each time. In addition, the MIC (against Escherichia coli [10]; in the test on Klebsiella pneumoniae [14]; with Pseudomonas aeruginosa [15]; in test [17]) was 6.25 microg/cm3 each time. Also, the “Diameter of inhibition zone” value came to 19 mm in [3]; 26 mm with Escherichia coli [6]; 19 mm with Talaromyces marneffei [12]; 19 mm in the test on Aspergillus fumigatus [13]; 31 mm with Pseudomonas aeruginosa [16]; 20 mm with Candida albicans [18]. In addition, the “Diameter of inhibition zone” value in the test on Streptococcus pyogenes [19] turned out to be 19 mm; in the test on Klebsiella pneumoniae [20], 17 mm; in the test on Staphylococcus aureus [21] it was 26 mm; in the test with Aspergillus niger [22] it was 24 mm. Moreover, the Time stood at 13.2 in the test with Mus musculus [7] and 12.9 in the test with Mus musculus [11]. Besides, the inhibition in vivo at 50 mg/kg in the test with Rattus norvegicus was determined as 42.2%.

For the compound `Fc1cc(-c2nc3scc(-c4ccc(Br)cc4)n3n2)c(Cl)cc1Cl`, the MIC in the test on Streptococcus pyogenes [1] is reported as 6.25 microg/cm3; against Talaromyces marneffei [2] it was 25 microg/cm3; in the test with Aspergillus niger [4] it was 25 microg/cm3; against Staphylococcus aureus [5], 6.25 microg/cm3; against Aspergillus fumigatus [8], 12.5 microg/cm3; in the test with Candida albicans [9], 12.5 microg/cm3. Also, the MIC was 6.25 microg/cm3 in the test with Escherichia coli [10], 6.25 microg/cm3 against Klebsiella pneumoniae [14], 6.25 microg/cm3 in the test with Pseudomonas aeruginosa [15] and above 100 microg/cm3 in [17]. Further, the “Diameter of inhibition zone” value amounted to 24 mm with Escherichia coli [6]; 10 mm with Talaromyces marneffei [12]; 12 mm in the test on Aspergillus fumigatus [13]; 29 mm with Pseudomonas aeruginosa [16]; 14 mm with Candida albicans [18]; 25 mm with Streptococcus pyogenes [19]. Moreover, the “Diameter of inhibition zone” value stood at 19 mm with Klebsiella pneumoniae [20], 21 mm in the test with Staphylococcus aureus [21] and 9 mm with Aspergillus niger [22]. In addition, the Time in the test on Mus musculus [7] is recorded as 14.8; in the test on Mus musculus [11] it was 13.9. Besides, in the test with Rattus norvegicus, the inhibition in vivo at 50 mg/kg was determined as 25%.

Consider `O=[N+]([O-])c1ccc(-c2csc3nc(-c4cc(F)c(Cl)cc4Cl)nn23)cc1`, for which the MIC is reported as 12.5 microg/cm3 with Streptococcus pyogenes [1]; 6.25 microg/cm3 in the test with Talaromyces marneffei [2]; above 100 microg/cm3 with Aspergillus niger [4]; 12.5 microg/cm3 against Staphylococcus aureus [5]; 6.25 microg/cm3 against Aspergillus fumigatus [8]; 6.25 microg/cm3 in the test with Candida albicans [9]. The MIC came out at 6.25 microg/cm3 in the test on Escherichia coli [10], 12.5 microg/cm3 against Klebsiella pneumoniae [14], 6.25 microg/cm3 in the test on Pseudomonas aeruginosa [15] and 25 microg/cm3 in test [17]. Further, the “Diameter of inhibition zone” value in test [3] was determined as 10 mm; with Escherichia coli [6], 15 mm; with Talaromyces marneffei [12], 18 mm; in the test on Aspergillus fumigatus [13], 17 mm; in the test with Pseudomonas aeruginosa [16], 15 mm; in the test on Candida albicans [18], 16 mm. The “Diameter of inhibition zone” value in the test on Streptococcus pyogenes [19] is reported as 12 mm; in the test with Klebsiella pneumoniae [20], 11 mm; in the test with Staphylococcus aureus [21], 12 mm. Further, the Time turned out to be 11.2 in the test on Mus musculus [7] and 10.9 with Mus musculus [11]. For the same compound, the inhibition in vivo at 50 mg/kg in the test with Rattus norvegicus stood at 10.9%.

Consider `COc1ccc(-c2csc3nc(-c4cc(F)c(Cl)cc4Cl)nn23)cc1`, for which the MIC is 6.25 microg/cm3 against Streptococcus pyogenes [1]; 6.25 microg/cm3 against Talaromyces marneffei [2]; 6.25 microg/cm3 with Aspergillus niger [4]; 6.25 microg/cm3 in the test with Staphylococcus aureus [5]; above 100 microg/cm3 in the test on Aspergillus fumigatus [8]; 6.25 microg/cm3 in the test on Candida albicans [9]. Moreover, the MIC amounted to 6.25 microg/cm3 with Escherichia coli [10], 6.25 microg/cm3 in the test with Klebsiella pneumoniae [14], 6.25 microg/cm3 with Pseudomonas aeruginosa [15] and 12.5 microg/cm3 in test [17]. Moreover, the “Diameter of inhibition zone” value in [3] was 14 mm; in the test with Escherichia coli [6], 25 mm; in the test on Talaromyces marneffei [12], 17 mm; in the test on Pseudomonas aeruginosa [16], 30 mm; in the test on Candida albicans [18] it was 17 mm; in the test with Streptococcus pyogenes [19] it was 23 mm. Moreover, the “Diameter of inhibition zone” value in the test on Klebsiella pneumoniae [20] was 19 mm; in the test on Staphylococcus aureus [21], 21 mm; in the test with Aspergillus niger [22] it was 20 mm. For the same compound, the Time amounted to 11.1 in the test with Mus musculus [7] and 11.96 in the test with Mus musculus [11]. Moreover, the inhibition in vivo at 50 mg/kg with Rattus norvegicus is 40.6%.

`Cc1ccc(-c2csc3nc(-c4cc(F)c(Cl)cc4Cl)nn23)cc1`: the MIC with Streptococcus pyogenes [1] is listed as 12.5 microg/cm3; with Talaromyces marneffei [2] it was above 100 microg/cm3; against Aspergillus niger [4], 12.5 microg/cm3; in the test on Staphylococcus aureus [5], 6.25 microg/cm3; in the test on Aspergillus fumigatus [8], 6.25 microg/cm3; against Candida albicans [9] it was above 100 microg/cm3. Moreover, the MIC is 12.5 microg/cm3 against Escherichia coli [10], 6.25 microg/cm3 with Klebsiella pneumoniae [14], 6.25 microg/cm3 in the test with Pseudomonas aeruginosa [15] and 25 microg/cm3 in test [17]. For the same compound, the “Diameter of inhibition zone” value was determined as 8 mm in test [3]; 13 mm with Escherichia coli [6]; 16 mm in the test on Aspergillus fumigatus [13]; 14 mm with Pseudomonas aeruginosa [16]; 14 mm in the test with Streptococcus pyogenes [19]; 15 mm in the test on Klebsiella pneumoniae [20]. For the same compound, the results for the “Diameter of inhibition zone” value in the test on Staphylococcus aureus [21] and in the test with Aspergillus niger [22] were 15 mm and 11 mm, respectively. Besides, the Time in the test on Mus musculus [7] is 8.2; in the test with Mus musculus [11], 8.4. Besides, in the test on Rattus norvegicus, the inhibition in vivo at 50 mg/kg turned out to be 0%.

On to `O=C(O)c1cn(C2CC2)c2cc(N3CCNCC3)c(F)cc2c1=O` [CIPROFLOXACIN], for which the MIC with Streptococcus pyogenes [1], in the test with Staphylococcus aureus [5], against Escherichia coli [10], against Klebsiella pneumoniae [14] and in the test on Pseudomonas aeruginosa [15] was 6.25 microg/cm3 each time. For the same compound, the “Diameter of inhibition zone” value with Escherichia coli [6] is given as 29 mm; with Pseudomonas aeruginosa [16], 32 mm; in the test with Streptococcus pyogenes [19], 25 mm; in the test with Klebsiella pneumoniae [20], 21 mm; in the test with Staphylococcus aureus [21], 23 mm.

For `Fc1cc(-c2nc3scc(-c4ccc(Cl)cc4Cl)n3n2)c(Cl)cc1Cl`, the MIC in the test with Streptococcus pyogenes [1] was determined as 6.25 microg/cm3; against Talaromyces marneffei [2], 12.5 microg/cm3; in the test with Aspergillus niger [4], 12.5 microg/cm3; with Staphylococcus aureus [5], 12.5 microg/cm3; with Aspergillus fumigatus [8], 25 microg/cm3; against Candida albicans [9] it was 25 microg/cm3. Also, the MIC in the test on Escherichia coli [10] is recorded as 12.5 microg/cm3; against Klebsiella pneumoniae [14], 12.5 microg/cm3; against Pseudomonas aeruginosa [15], 12.5 microg/cm3; in [17], above 100 microg/cm3. Further, the “Diameter of inhibition zone” value in the test on Escherichia coli [6] is reported as 11 mm; in the test on Talaromyces marneffei [12], 12 mm; in the test with Aspergillus fumigatus [13], 8 mm; in the test on Pseudomonas aeruginosa [16], 13 mm; in the test with Candida albicans [18], 10 mm; in the test on Streptococcus pyogenes [19], 15 mm. Also, the “Diameter of inhibition zone” value in the test with Klebsiella pneumoniae [20] stood at 13 mm; with Staphylococcus aureus [21], 14 mm; with Aspergillus niger [22], 14 mm. In addition, the Time in the test with Mus musculus [7] is recorded as 8.96; with Mus musculus [11] it was 9.6. Moreover, the inhibition in vivo at 50 mg/kg with Rattus norvegicus is 17.2%.

As for `C[C@@H]1[C@H](O)[C@@H](C)/C=C/C=C/C=C/C=C/C=C/C=C/C=C/[C@H](O[C@@H]2O[C@H](C)[C@@H](O)[C@H](N)[C@@H]2O)C[C@@H]2O[C@](O)(C[C@@H](O)C[C@@H](O)[C@H](O)CC[C@@H](O)C[C@@H](O)CC(=O)O[C@H]1C)C[C@H](O)[C@H]2C(=O)O` [AMPHOTERICIN B], the MIC came out at 6.25 microg/cm3 against Talaromyces marneffei [2]; 12.5 microg/cm3 in the test with Aspergillus niger [4]; 6.25 microg/cm3 against Aspergillus fumigatus [8]; 6.25 microg/cm3 against Candida albicans [9]; 6.25 microg/cm3 in test [17]. The “Diameter of inhibition zone” value in test [3] came out at 19 mm; with Talaromyces marneffei [12], 23 mm; with Aspergillus fumigatus [13] it was 21 mm; in the test on Candida albicans [18], 20 mm; in the test with Aspergillus niger [22], 25 mm.

Values taken from ChEMBL document CHEMBL1153872, “Synthesis, analgesic, anti-inflammatory and antimicrobial studies of 2,4-dichloro-5-fluorophenyl containing thiazolotriazoles” (2009).
